Experimental data published in patent US10722520B2, “Heterocyclic compounds and their use in preventing or treating bacterial infections” (MUTABILIS, priority 2016, dated 2020).
Where two headings read alike, the source gives them in different places.

How the values were obtained:
[1] = biological target: OXA-1 (Escherichia coli, UniProt P13661)
[2] = biological target: TEM-1 (Escherichia coli, UniProt P62593)
[3] = biological target: CMY-37 (Citrobacter freundii, UniProt P05193); conditions: read-out: IC50 β-lactamase CMY-37; class (C); nitrocefin 200 μM, 30-min pre-incubation, enzyme 0.2 nM
[4] = tested on: E. coli RGN238; assay: microbe, parasite or virus in culture; type: cell-based
Protocol: Log phase bacterial suspensions were adjusted to a final density of 5×10^5 cfu/mL in cation-adjusted Mueller-Hinton broth (Becton-Dickinson) and added to each well (98 μL). Microplates were incubated for 16-20 h at 35° C. in ambient air. The MIC of the compounds was defined as the lowest concentration of said compounds that prevented bacterial growth as read by visual inspection.

[5] = biological target: OXA-48 (Klebsiella pneumoniae, UniProt Q6XEC0)
[6] = biological target: SHV-1 (Klebsiella pneumoniae, UniProt P0AD64)
[7] = biological target: CTX-M-15 (Escherichia coli, UniProt Q9EXV5)
[8] = tested on: K. pneumoniae 160143; assay: MIC of compound alone, broth microdilution; type: cell-based; conditions: strain 160143: K. pneumoniae, TEM-1, SHV-1, CTX-M-15, KPC-2, OXA-1
Outline: (§1)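 Visual end point: lowest concentration that blocked growth. Conditions: cation-adjusted Mueller-Hinton broth, 5×10^5 cfu/mL final inoculum of log-phase bacteria, 16-20 h, 35° C, ambient atmosphere.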

[9] = tested on: K. oxytoca UFR21; assay: MIC of compound alone, broth microdilution; type: cell-based; conditions: strain UFR21: K. oxytoca, TEM-1, CTX-M-15, OXA-48
Outline: as §1

[10] = tested on: E. coli 190317; assay: MIC of compound alone, broth microdilution; type: cell-based; conditions: strain 190317: E. coli, TEM-1, SHV-12, CTX-M-15, OXA-1
Outline: as §1

[11] = tested on: E. cloacae UFR70; assay: MIC of compound alone, broth microdilution; type: cell-based; conditions: strain UFR70: E. cloacae, TEM-1, CTX-M-15, CMY-2, OXA-1, Porin loss
Outline: as §1

[12] = tested on: E. coli UFR18; assay: MIC of compound alone, broth microdilution; type: cell-based; conditions: strain UFR18: E. coli, CTX-M-15, OXA-204
Outline: as §1

[13] = tested on: P. aeruginosa CIP107051; assay: MIC of compound alone, broth microdilution; type: cell-based; conditions: strain CIP107051: P. aeruginosa, TEM-24
Outline: as §1

[14] = tested on: E. coli UFR74; assay: MIC of compound alone, broth microdilution; type: cell-based; conditions: strain UFR74: E. coli, SHV-1, DHA-1
Outline: as §1

[15] = tested on: E. coli UFR41; assay: MIC of compound alone, broth microdilution; type: cell-based; conditions: strain UFR41: E. coli, TEM-1, CTX-M-15, CMY-2, OXA-1, NDM-4
Outline: as §1

[16] = tested on: E. cloacae UFR85; assay: MIC of compound alone, broth microdilution; type: cell-based; conditions: strain UFR85: E. cloacae, TEM-1, CTX-M-15, AmpC
Outline: as §1

[17] = tested on: E. coli 131119; assay: MIC of compound alone, broth microdilution; type: cell-based; conditions: strain 131119: E. coli, TEM-1, OXA-48
Outline: as §1

[18] = tested on: K. pneumoniae UFR77; assay: MIC of compound alone, broth microdilution; type: cell-based; conditions: strain UFR77: K. pneumoniae, CMY-2
Outline: as §1

[19] = tested on: K. pneumoniae 6299; assay: MIC of compound alone, broth microdilution; type: cell-based; conditions: strain 6299: K. pneumoniae, TEM-1, SHV-11, OXA-163
Outline: as §1

[20] = tested on: K. pneumoniae 200047; assay: MIC of compound alone, broth microdilution; type: cell-based; conditions: strain 200047: K. pneumoniae, TEM-1, SHV-32, CTX-M-15, OXA-1
Outline: as §1

[21] = tested on: E. coli UFR39; assay: MIC of compound alone, broth microdilution; type: cell-based
Outline: as §1

[22] = tested on: E. coli UFR61O; assay: MIC of compound alone, broth microdilution; type: cell-based; conditions: strain UFR61O: E. coli, TEM-1, KPC-2
Outline: as §1

[23] = tested on: E. coli UFR32; assay: MIC of compound alone, broth microdilution; type: cell-based; conditions: strain UFR32: E. coli, TEM-1, VEB-1, OXA-10
Outline: as §1

[24] = biological target: OXA-11 (Pseudomonas aeruginosa, UniProt Q06778)
[25] = biological target: KPC-2 (Klebsiella pneumoniae, UniProt Q9F663)
[26] = biological target: OXA-15 (Pseudomonas aeruginosa, UniProt Q51574); assay: biochemical
[27] = Klebsiella pneumoniae, read-out: MIC compounds of the invention alone
[28] = Escherichia coli, read-out: MIC compounds of the invention alone
[29] = Enterobacter cloacae, read-out: MIC compounds of the invention alone

## O=C1N2CC(n3ccnn3)=CC(C2)N1OS(=O)(=O)[O-].[Na+] (centres unmarked) [Example 2, sodium [7-oxo-3-(triazol-1-yl)-1,6-diazabicyclo[3.2.1]oct-3-en-6-yl]sulfate]
[1]; read-out: IC50 β-lactamase OXA-1, class (D), nitrocefin 200 μM, 30-min pre-incubation, enzyme 0.2 nM
  IC50: 58 nM
[2]; read-out: IC50 β-lactamase TEM-1, class (A), nitrocefin 200 μM, 30-min pre-incubation, enzyme 0.1 nM
  IC50: 0.56 nM
[3]
  IC50: 31 nM
[4]; strain RGN238: E. coli, OXA-1
  MIC compounds of the invention alone: 2 µg/mL
[5]; read-out: IC50 β-lactamase OXA-48, class (D), nitrocefin 200 μM, 30-min pre-incubation, enzyme 0.3 nM
  IC50: 0.59 nM
[6]; read-out: IC50 β-lactamase SHV-1, class (A), nitrocefin 200 μM, 30-min pre-incubation, enzyme 0.075 nM
  IC50: 4 nM
[7]; read-out: IC50 β-lactamase CTX-M-15, class (A), nitrocefin 200 μM, 30-min pre-incubation, enzyme 0.4 nM
  IC50: 0.67 nM
[8]
  MIC compounds of the invention alone: 2 µg/mL
[9]
  MIC compounds of the invention alone: 2 µg/mL
[10]
  MIC compounds of the invention alone: 1 µg/mL
[11]
  MIC compounds of the invention alone: 1 µg/mL
[12]
  MIC compounds of the invention alone: 1 µg/mL
[13]
  MIC compounds of the invention alone: >32 µg/mL
[14]
  MIC compounds of the invention alone: 2 µg/mL
[15]
  MIC compounds of the invention alone: 2 µg/mL
[16]
  MIC compounds of the invention alone: 1 µg/mL
[17]
  MIC compounds of the invention alone: 1 µg/mL
[18]
  MIC compounds of the invention alone: 2 µg/mL
[19]
  MIC compounds of the invention alone: 4 µg/mL
[20]
  MIC compounds of the invention alone: 2 µg/mL
[21]; strain UFR39: E. coli, CTX-M-15, NDM-1
  MIC compounds of the invention alone: 1 µg/mL
[22]
  MIC compounds of the invention alone: 4 µg/mL
[23]
  MIC compounds of the invention alone: 1 µg/mL
[24]; read-out: IC50 β-lactamase OXA-11, class (D), nitrocefin 200 μM, 30-min pre-incubation, enzyme 1.2 nM
  IC50: 40 nM
[25]; read-out: IC50 β-lactamase KPC-2, class (A), nitrocefin 200 μM, 30-min pre-incubation, enzyme 1 nM
  IC50: 4.7 nM

## O=C1N2CC(n3ccnn3)=C[C@H](C2)N1OS(=O)(=O)O [Example 6, sodium [(5R)-7-oxo-3-(triazol-1-yl)-1,6-diazabicyclo[3.2.1]oct-3-en-6-yl]sulfate]
[26]
  IC50: 21 nM
[1]
  IC50: 31 nM
[2]
  IC50: 0.36 nM
[4]; Escherichia coli, RGN238, read-out: MIC compounds of the invention alone
  MIC: 1 µg/mL
[5]
  IC50: 0.38 nM
[6]
  IC50: 1.9 nM
[7]
  IC50: 0.58 nM
[8]; [27]
  MIC: 1 µg/mL
[9]; Klebsiella oxytoca, read-out: MIC compounds of the invention alone
  MIC: 1 µg/mL
[10]; [28]
  MIC: 0.5 µg/mL
[11]; [29]
  MIC: 0.5 µg/mL
[12]; [28]
  MIC: 0.5 µg/mL
[13]; Pseudomonas aeruginosa, read-out: MIC compounds of the invention alone
  MIC: 32 µg/mL
[14]; [28]
  MIC: 1 µg/mL
[15]; [28]
  MIC: 2 µg/mL
[16]; [29]
  MIC: 1 µg/mL
[17]; [28]
  MIC: 0.5 µg/mL
[18]; [27]
  MIC: 1 µg/mL
[19]; [27]
  MIC: 2 µg/mL
[20]; [27]
  MIC: 1 µg/mL
[21]; Escherichia coli, UFR39, read-out: MIC compounds of the invention alone
  MIC: 1 µg/mL
[22]; [28]
  MIC: 2 µg/mL
[23]; [28]
  MIC: 0.5 µg/mL
[24]
  IC50: 21 nM
[25]
  IC50: 2.1 nM
